Data as given in patent US20240308988A1, “Method For Controlling Diamide Resistant Pests and Compounds Therefor” (priority 2021, published 2024).

Experiments:
[1] = tested on: Plutella xylostella (Diamond back moth) ryanodine receptor, containing the G4946E resistance mutation; assay: In vitro calcium fluorescence assay (Fluo-8 NW, FDSS) in human embryonic kidney cells expressing the ryanodine receptor; type: cell-based; conditions: table; EC50 (compound)/EC50 (cyantraniliprole); G4946E RyR in HEK cells
How it was run: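 Fluo-8 NW-loaded cells, compounds at 10 rates, intracellular calcium fluorescence read on FDSS. EC50 from dose-response curves, normalized to in-assay cyantraniliprole as REC50 = EC50(compound)/EC50(cyantraniliprole).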

| Structure (SMILES) | melting point | REC50 (Compound of the invention) [1] |
| --- | --- | --- |
| COc1cc(C(=O)Nc2c(C)cc(Br)cc2C(N)=O)n(-c2ncccc2Cl)n1 [Compound P45, N-(4-bromo-2-carbamoyl-6-methyl-phenyl)-2-(3-chloro-2-pyridyl)-5-methoxy-pyrazole-3-carboxamide] | 210 to 215 °C | 0.24 |
| COc1cc(C(=O)Nc2c(Cl)cc(Br)cc2C(N)=O)n(-c2ncccc2Cl)n1 [Compound P47, N-(4-bromo-2-carbamoyl-6-chloro-phenyl)-2-(3-chloro-2-pyridyl)-5-methoxy-pyrazole-3-carboxamide] | 160 to 165 °C | 0.61 |
| COc1cc(C(=O)Nc2c(Cl)cc(Cl)cc2C(N)=O)n(-c2ncccc2Cl)n1 [Compound P59, N-(2-carbamoyl-4,6-dichloro-phenyl)-2-(3-chloro-2-pyridyl)-5-methoxy-pyrazole-3-carboxamide] | 155 to 160 °C | 0.62 |
| CCc1cc(C(=O)Nc2c(C)cc(Cl)cc2C(N)=O)n(-c2ncccc2Cl)n1 [Compound P75, N-(2-carbamoyl-4-chloro-6-methyl-phenyl)-2-(3-chloro-2-pyridyl)-5-ethyl-pyrazole-3-carboxamide] | 245 to 250 °C | 0.69 |
